The record followed here is patent publication US20050113295A1, “Carboxamide and amino derivatives and methods of their use” (priority 2003, published 2005).

Where a SMILES comes first, the peptide text is derived from it. [ ]: non-standard residue; d: D form. Phe(4-CONH2) = NC(=O)c1ccc(C[C@H](N)C(=O)O)cc1

The target in assay [1] is T1, cloned human μ opioid receptor (Homo sapiens, UniProt P35372).
T1 construct: expressed in transfected cells; host or cells: CHO cells
Briefly: [3H]diprenorphine receptor binding, μ opioid receptor. The settings on record: δ over μ. As for the experimental part:
(§1) The potencies of the compounds of the Examples were determined by testing the ability of a range of concentrations of each compound to inhibit the binding of the non-selective opioid antagonist, [^3H]diprenorphine, to the cloned human μ, κ, and δ opioid receptors, expressed in separate cell lines. IC50 values were obtained by nonlinear analysis of the data using GraphPad Prism version 3.00 for Windows (GraphPad Software, San Diego). Ki values were obtained by Cheng-Prusoff corrections of IC50 values.
(§2) The receptor binding method (DeHaven and DeHaven-Hudkins, 1998) was a modification of the method of Raynor et al. (1994). […] The filters were rinsed 4 times with 1 mL of cold 50 mM Tris HCl, pH 7.8 and radioactivity remaining on the filters determined by scintillation spectroscopy. Nonspecific binding was determined by the minimum values of the titration curves and was confirmed by separate assay wells containing 10 μM naloxone. Ki values were determined by Cheng-Prusoff corrections of IC50 values derived from nonlinear regression fits of 12 point titration curves using GraphPad Prism® version 3.00 for Windows (GraphPad Software, San Diego, Calif.).
(§3) To determine the equilibrium dissociation constant for the inhibitors (Ki), radioligand bound (cpm) in the presence of various concentrations of test compounds was measured. […]

For assay [2], the target named is T2, cloned human δ opioid receptor (Homo sapiens, UniProt P41143).
T2 construct: expressed in transfected cells; host or cells: CHO cells
T2 sequence (P41143 whole entry): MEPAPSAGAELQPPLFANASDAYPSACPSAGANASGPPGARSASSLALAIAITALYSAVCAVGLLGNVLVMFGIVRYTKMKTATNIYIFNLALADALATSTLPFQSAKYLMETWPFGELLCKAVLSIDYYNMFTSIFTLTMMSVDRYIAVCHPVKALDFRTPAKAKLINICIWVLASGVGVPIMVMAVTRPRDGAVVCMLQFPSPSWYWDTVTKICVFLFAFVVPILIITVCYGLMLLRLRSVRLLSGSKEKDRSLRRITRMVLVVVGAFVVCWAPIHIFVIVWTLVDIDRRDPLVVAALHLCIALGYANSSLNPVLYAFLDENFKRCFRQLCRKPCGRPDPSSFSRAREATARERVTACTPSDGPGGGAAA
Briefly: [3H]diprenorphine receptor binding, δ opioid receptor. The procedure: as §1, §2, §3

Assay [3] addresses T3, cloned human κ opioid receptor (Homo sapiens, UniProt P41145).
T3 construct: expressed in transfected cells; host or cells: CHO cells
Briefly: [3H]diprenorphine receptor binding, κ opioid receptor. Particulars: δ over κ. As for the experimental part:
as §1, §2, §3

In assay [4] the target is T2, cloned human δ opioid receptor. Briefly: Receptor-mediated [35S]GTPγS binding, δ opioid receptor. The class given is biochemical. The procedure:
The potency and efficacy of compounds at each of the receptors are assessed by modifications of the methods of Selley et al., 1997 and Traynor and Nahorski, 1995 using receptor-mediated [^35S]GTPγS binding in the same membrane preparations used to measure receptor binding. Assays are carried out in 96-well FlashPlates® (Perkin Elmer Life Sciences, Inc, Boston, Mass.). Membranes prepared from CHO cells expressing the appropriate receptor (50-100 μg of protein) are added to assay mixtures containing agonist with or without antagonists, […] [^35S]GTPγS (approx. 100,000 dpm), 3.0 μM GDP, 75 mM NaCl, 15 mM MgCl2, 1.0 mM ethylene glycol-bis(β-aminoethyl ether)-N,N,N′,N′-tetracetic acid, 1.1 mM dithiothreitol, 10 μg/mL leupeptin, 10 μg/mL pepstatin A, 200 μg/mL bacitracin, and 0.5 μg/mL aprotinin in 50 mM Tris-HCl buffer, pH 7.8. After incubation at room temperature for one hour, the plates are sealed, centrifuged at 800×g in a swinging bucket rotor for 5 minutes and bound radioactivity determined with a TopCount microplate scintillation counter (Packard Instrument Co., Meriden, Conn.).
EC50 values for agonists are determined from nonlinear regression fits of 8- or 12-point titration curves to the 4-parameter equation for a sigmoidal dose-response with a slope factor of 1.0 using GraphPad Prism version 3.00 for Windows (GraphPad Software, San Diego, Calif.).

T1 sequence (P35372 whole entry): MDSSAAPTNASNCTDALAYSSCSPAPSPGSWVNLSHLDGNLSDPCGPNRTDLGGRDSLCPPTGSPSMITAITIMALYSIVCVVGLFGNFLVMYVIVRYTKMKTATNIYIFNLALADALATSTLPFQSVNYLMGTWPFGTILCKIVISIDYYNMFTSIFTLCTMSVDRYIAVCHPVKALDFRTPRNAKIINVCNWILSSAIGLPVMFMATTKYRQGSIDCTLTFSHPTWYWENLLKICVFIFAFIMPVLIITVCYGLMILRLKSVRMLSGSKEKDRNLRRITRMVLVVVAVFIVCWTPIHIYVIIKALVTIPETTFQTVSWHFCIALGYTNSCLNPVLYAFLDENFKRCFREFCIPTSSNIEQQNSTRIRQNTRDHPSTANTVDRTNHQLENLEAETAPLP
T3 sequence (P41145 whole entry): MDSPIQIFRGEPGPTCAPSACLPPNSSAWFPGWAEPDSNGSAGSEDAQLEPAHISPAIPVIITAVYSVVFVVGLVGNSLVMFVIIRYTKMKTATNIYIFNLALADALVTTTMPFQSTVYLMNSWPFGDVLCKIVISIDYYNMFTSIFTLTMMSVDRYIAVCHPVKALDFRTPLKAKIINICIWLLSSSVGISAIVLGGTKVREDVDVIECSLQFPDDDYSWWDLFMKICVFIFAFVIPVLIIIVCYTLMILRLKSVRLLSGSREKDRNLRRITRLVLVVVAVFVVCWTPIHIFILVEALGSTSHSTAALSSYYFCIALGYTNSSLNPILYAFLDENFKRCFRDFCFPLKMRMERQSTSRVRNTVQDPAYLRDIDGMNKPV

Turning to `CC(C)C[C@H](NC(=O)[C@H](Cc1ccccc1)NC(=O)CNC(=O)CNC(=O)[C@@H](N)Cc1ccc(C(N)=O)cc1)C(N)=O` [Example 1, H-Cpa-Gly-Gly-Phe-Leu-NH2] (H-[Phe(4-CONH2)]GGFL-NH2), in assay [1], the “selectivity versus the μ opioid receptor” value is listed as “greater than 10 fold”. The same compound registered a Ki in assay [2] of 7 nM. The “selectivity versus the κ opioid receptor” value in assay [3] is reported as “greater than 10 fold”. For the same compound, in assay [4], the EC50 amounted to 74 nM.
